These are literature values, as cited in patent US20200399148A1, “METHOD AND APPARATUS FOR ELECTROCHEMICAL pH CONTROL” (BAR-ILAN UNIVERSITY, priority 2018, published 2020).

For this series, the system named is bacteria. As to conditions: relative to hypochlorous acid.

As to `OCl` [OCl^−, hypochlorite anion], the “bactericidal activity, times less than hypochlorous acid” value was 80-120 time less.
